Reference: ChEMBL document CHEMBL1131152, “In vitro and in vivo activities of oligodeoxynucleotide-based thrombin inhibitors containing neutral formacetal linkages” (J Med Chem, 1998)

The molecules below were run against Prothrombin (Homo sapiens) (UniProt P00734) (assay: Relative prothrombin time was determined as the activity of the test ODN (oligodeoxynucleotide) relative to that of GS-522).

Row | SMILES | Relative PT
1 | Cc1cn([C@H]2C[C@H](OP(=O)(O)OC[C@H]3O[C@@H](n4cnc5c(=O)nc(N)[nH]c54)C[C@@H]3OP(=O)(O)OC[C@H]3O[C@@H](n4cnc5c(=O)[nH]c(=N)[nH]c54)C[C@@H]3OP(=O)(O)OC[C@H]3O[C@@H](n4cc(C)c(=O)[nH]c4=O)C[C@@H]3OP(=O)(O)OC[C@H]3O[C@@H](n4cc(C)c(=O)[nH]c4=O)C[C@@H]3OP(=O)(O)OC[C@H]3O[C@@H](n4cnc5c(=O)[nH]c(=N)[nH]c54)C[C@@H]3OP(=O)(O)OC[C@H]3O[C@@H](n4cnc5c(=O)nc(N)[nH]c54)C[C@@H]3O)[C@@H](COCO[C@H]3C[C@H](n4cnc5c(=O)nc(N)[nH]c54)O[C@@H]3COP(=O)(O)O[C@H]3C[C@H](n4cc(C)c(=O)[nH]c4=O)O[C@@H]3COP(=O)(O)O[C@H]3C[C@H](n4cnc5c(=O)[nH]c(=N)[nH]c54)O[C@@H]3COP(=O)(O)O[C@H]3C[C@H](n4cnc5c(=O)nc(N)[nH]c54)O[C@@H]3COP(=O)(O)O[C@H]3C[C@H](n4cc(C)c(=O)[nH]c4=O)O[C@@H]3COP(=O)(O)O[C@H]3C[C@H](n4cc(C)c(=O)[nH]c4=O)O[C@@H]3COP(=O)(O)O[C@H]3C[C@H](n4cnc5c(=O)nc(N)[nH]c54)O[C@@H]3COP(=O)(O)O[C@H]3C[C@H](n4cnc5c(=O)nc(N)[nH]c54)O[C@@H]3COP(=O)(O)O)O2)c(=O)[nH]c1=O | 1.1
2 | Cc1cn([C@H]2C[C@H](OCOC[C@H]3O[C@@H](n4cnc5c(=O)[nH]c(=N)[nH]c54)C[C@@H]3OP(=O)(O)OC[C@H]3O[C@@H](n4cnc5c(=O)nc(N)[nH]c54)C[C@@H]3O)[C@@H](COP(=O)(O)O[C@H]3C[C@H](n4cc(C)c(=O)[nH]c4=O)O[C@@H]3COP(=O)(O)O[C@H]3C[C@H](n4cnc5c(=O)[nH]c(=N)[nH]c54)O[C@@H]3COP(=O)(O)O[C@H]3C[C@H](n4cnc5c(=O)nc(N)[nH]c54)O[C@@H]3COP(=O)(O)O[C@H]3C[C@H](n4cc(C)c(=O)[nH]c4=O)O[C@@H]3COP(=O)(O)O[C@H]3C[C@H](n4cnc5c(=O)[nH]c(=N)[nH]c54)O[C@@H]3COP(=O)(O)O[C@H]3C[C@H](n4cc(C)c(=O)[nH]c4=O)O[C@@H]3COP(=O)(O)O[C@H]3C[C@H](n4cnc5c(=O)[nH]c(=N)[nH]c54)O[C@@H]3COP(=O)(O)O[C@H]3C[C@H](n4cnc5c(=O)nc(N)[nH]c54)O[C@@H]3COP(=O)(O)O[C@H]3C[C@H](n4cc(C)c(=O)[nH]c4=O)O[C@@H]3COP(=O)(O)O[C@H]3C[C@H](n4cc(C)c(=O)[nH]c4=O)O[C@@H]3COP(=O)(O)O[C@H]3C[C@H](n4cnc5c(=O)nc(N)[nH]c54)O[C@@H]3COP(=O)(O)O[C@H]3C[C@H](n4cnc5c(=O)nc(N)[nH]c54)O[C@@H]3COP(=O)(O)O)O2)c(=O)[nH]c1=O | 0.6
3 | Cc1cn([C@H]2C[C@H](OCOC[C@H]3O[C@@H](n4cc(C)c(=O)[nH]c4=O)C[C@@H]3OP(=O)(O)OC[C@H]3O[C@@H](n4cnc5c(=O)nc(N)[nH]c54)C[C@@H]3OP(=O)(O)OC[C@H]3O[C@@H](n4cnc5c(=O)[nH]c(=N)[nH]c54)C[C@@H]3OCOC[C@H]3O[C@@H](n4cc(C)c(=O)[nH]c4=O)C[C@@H]3OP(=O)(O)OC[C@H]3O[C@@H](n4cnc5c(=O)nc(N)[nH]c54)C[C@@H]3OCOC[C@H]3O[C@@H](n4cc(C)c(=O)[nH]c4=O)C[C@@H]3OP(=O)(O)OC[C@H]3O[C@@H](n4cnc5c(=O)nc(N)[nH]c54)C[C@@H]3OP(=O)(O)OC[C@H]3O[C@@H](n4cnc5c(=O)[nH]c(=N)[nH]c54)C[C@@H]3OP(=O)(O)OC[C@H]3O[C@@H](n4cc(C)c(=O)[nH]c4=O)C[C@@H]3OCOC[C@H]3O[C@@H](n4cc(C)c(=O)[nH]c4=O)C[C@@H]3OP(=O)(O)OC[C@H]3O[C@@H](n4cnc5c(=O)[nH]c(=N)[nH]c54)C[C@@H]3OP(=O)(O)OC[C@H]3O[C@@H](n4cnc5c(=O)nc(N)[nH]c54)C[C@@H]3O)[C@@H](COP(=O)(O)O[C@H]3C[C@H](n4cnc5c(=O)[nH]c(=N)[nH]c54)O[C@@H]3COP(=O)(O)O[C@H]3C[C@H](n4cnc5c(=O)nc(N)[nH]c54)O[C@@H]3COP(=O)(O)O)O2)c(=O)[nH]c1=O | 0.8
4 | Cc1cn([C@H]2C[C@H](OCOC[C@H]3O[C@@H](n4cnc5c(=O)nc(N)[nH]c54)C[C@@H]3OP(=O)(O)OC[C@H]3O[C@@H](n4cnc5c(=O)[nH]c(=N)[nH]c54)C[C@@H]3OP(=O)(O)OC[C@H]3O[C@@H](n4cc(C)c(=O)[nH]c4=O)C[C@@H]3OP(=O)(O)OC[C@H]3O[C@@H](n4cnc5c(=O)[nH]c(=N)[nH]c54)C[C@@H]3OP(=O)(O)OC[C@H]3O[C@@H](n4cc(C)c(=O)[nH]c4=O)C[C@@H]3OP(=O)(O)OC[C@H]3O[C@@H](n4cnc5c(=O)nc(N)[nH]c54)C[C@@H]3OP(=O)(O)OC[C@H]3O[C@@H](n4cnc5c(=O)[nH]c(=N)[nH]c54)C[C@@H]3OP(=O)(O)OC[C@H]3O[C@@H](n4cc(C)c(=O)[nH]c4=O)C[C@@H]3OP(=O)(O)OC[C@H]3O[C@@H](n4cc(C)c(=O)[nH]c4=O)C[C@@H]3OP(=O)(O)OC[C@H]3O[C@@H](n4cnc5c(=O)[nH]c(=N)[nH]c54)C[C@@H]3OP(=O)(O)OC[C@H]3O[C@@H](n4cnc5c(=O)nc(N)[nH]c54)C[C@@H]3O)[C@@H](COP(=O)(O)O[C@H]3C[C@H](n4cc(C)c(=O)[nH]c4=O)O[C@@H]3COP(=O)(O)O[C@H]3C[C@H](n4cnc5c(=O)nc(N)[nH]c54)O[C@@H]3COP(=O)(O)O[C@H]3C[C@H](n4cnc5c(=O)nc(N)[nH]c54)O[C@@H]3COP(=O)(O)O)O2)c(=O)[nH]c1=O | 0.7

Next, values leading:

Row | Relative PT | SMILES
5 | 0.9 | Cc1cn([C@H]2C[C@H](OCOC[C@H]3O[C@@H](n4cc(C)c(=O)[nH]c4=O)C[C@@H]3OP(=O)(O)OC[C@H]3O[C@@H](n4cnc5c(=O)nc(N)[nH]c54)C[C@@H]3OP(=O)(O)OC[C@H]3O[C@@H](n4cnc5c(=O)[nH]c(=N)[nH]c54)C[C@@H]3OP(=O)(O)OC[C@H]3O[C@@H](n4cc(C)c(=O)[nH]c4=O)C[C@@H]3OCOC[C@H]3O[C@@H](n4cnc5c(=O)[nH]c(=N)[nH]c54)C[C@@H]3OP(=O)(O)OC[C@H]3O[C@@H](n4cc(C)c(=O)[nH]c4=O)C[C@@H]3OP(=O)(O)OC[C@H]3O[C@@H](n4cnc5c(=O)nc(N)[nH]c54)C[C@@H]3OP(=O)(O)OC[C@H]3O[C@@H](n4cnc5c(=O)[nH]c(=N)[nH]c54)C[C@@H]3OP(=O)(O)OC[C@H]3O[C@@H](n4cc(C)c(=O)[nH]c4=O)C[C@@H]3OCOC[C@H]3O[C@@H](n4cc(C)c(=O)[nH]c4=O)C[C@@H]3OP(=O)(O)OC[C@H]3O[C@@H](n4cnc5c(=O)[nH]c(=N)[nH]c54)C[C@@H]3OP(=O)(O)OC[C@H]3O[C@@H](n4cnc5c(=O)nc(N)[nH]c54)C[C@@H]3O)[C@@H](COP(=O)(O)O[C@H]3C[C@H](n4cnc5c(=O)nc(N)[nH]c54)O[C@@H]3COP(=O)(O)O[C@H]3C[C@H](n4cnc5c(=O)[nH]c(=N)[nH]c54)O[C@@H]3COP(=O)(O)O)O2)c(=O)[nH]c1=O
6 | 0.3 | Cc1cn([C@H]2C[C@H](OCOC[C@H]3O[C@@H](n4cnc5c(=O)nc(N)[nH]c54)C[C@@H]3OP(=O)(O)OC[C@H]3O[C@@H](n4cnc5c(=O)[nH]c(=N)[nH]c54)C[C@@H]3OP(=O)(O)OC[C@H]3O[C@@H](n4cc(C)c(=O)[nH]c4=O)C[C@@H]3OP(=O)(O)OC[C@H]3O[C@@H](n4cnc5c(=O)[nH]c(=N)[nH]c54)C[C@@H]3OP(=O)(O)OC[C@H]3O[C@@H](n4cc(C)c(=O)[nH]c4=O)C[C@@H]3OP(=O)(O)OC[C@H]3O[C@@H](n4cnc5c(=O)nc(N)[nH]c54)C[C@@H]3OP(=O)(O)OC[C@H]3O[C@@H](n4cnc5c(=O)[nH]c(=N)[nH]c54)C[C@@H]3OP(=O)(O)OC[C@H]3O[C@@H](n4cc(C)c(=O)[nH]c4=O)C[C@@H]3OP(=O)(O)OC[C@H]3O[C@@H](n4cc(C)c(=O)[nH]c4=O)C[C@@H]3OCOC[C@H]3O[C@@H](n4cnc5c(=O)[nH]c(=N)[nH]c54)C[C@@H]3OP(=O)(O)OC[C@H]3O[C@@H](n4cnc5c(=O)nc(N)[nH]c54)C[C@@H]3O)[C@@H](COP(=O)(O)O[C@H]3C[C@H](n4cc(C)c(=O)[nH]c4=O)O[C@@H]3COP(=O)(O)O[C@H]3C[C@H](n4cnc5c(=O)nc(N)[nH]c54)O[C@@H]3COP(=O)(O)O[C@H]3C[C@H](n4cnc5c(=O)[nH]c(=N)[nH]c54)O[C@@H]3COP(=O)(O)O)O2)c(=O)[nH]c1=O
7 | 0.7 | Cc1cn([C@H]2C[C@H](OCOC[C@H]3O[C@@H](n4cnc5c(=O)nc(N)[nH]c54)C[C@@H]3OP(=O)(O)OC[C@H]3O[C@@H](n4cnc5c(=O)[nH]c(=N)[nH]c54)C[C@@H]3OP(=O)(O)OC[C@H]3O[C@@H](n4cc(C)c(=O)[nH]c4=O)C[C@@H]3OP(=O)(O)OC[C@H]3O[C@@H](n4cc(C)c(=O)[nH]c4=O)C[C@@H]3O[PH](O)(O)OC[C@H]3O[C@@H](n4cnc5c(=O)[nH]c(=N)[nH]c54)C[C@@H]3OP(=O)(O)OC[C@H]3O[C@@H](n4cnc5c(=O)nc(N)[nH]c54)C[C@@H]3O)[C@@H](COP(=O)(O)O[C@H]3C[C@H](n4cnc5c(=O)[nH]c(=N)[nH]c54)O[C@@H]3COCO[C@H]3C[C@H](n4cc(C)c(=O)[nH]c4=O)O[C@@H]3COP(=O)(O)O[C@H]3C[C@H](n4cnc5c(=O)[nH]c(=N)[nH]c54)O[C@@H]3COP(=O)(O)O[C@H]3C[C@H](n4cnc5c(=O)nc(N)[nH]c54)O[C@@H]3COP(=O)(O)O[C@H]3C[C@H](n4cc(C)c(=O)[nH]c4=O)O[C@@H]3COP(=O)(O)O[C@H]3C[C@H](n4cc(C)c(=O)[nH]c4=O)O[C@@H]3COP(=O)(O)O[C@H]3C[C@H](n4cnc5c(=O)nc(N)[nH]c54)O[C@@H]3COP(=O)(O)O[C@H]3C[C@H](n4cnc5c(=O)nc(N)[nH]c54)O[C@@H]3COP(=O)(O)O)O2)c(=O)[nH]c1=O
8 | 0.7 | Cc1cn([C@H]2C[C@H](OP(=O)(O)OC[C@H]3O[C@@H](n4cnc5c(=O)nc(N)[nH]c54)C[C@@H]3OP(=O)(O)OC[C@H]3O[C@@H](n4cnc5c(=O)[nH]c(=N)[nH]c54)C[C@@H]3OP(=O)(O)OC[C@H]3O[C@@H](n4cc(C)c(=O)[nH]c4=O)C[C@@H]3OP(=O)(O)OC[C@H]3O[C@@H](n4cnc5c(=O)nc(N)[nH]c54)C[C@@H]3OP(=O)(O)OC[C@H]3O[C@@H](n4cc(C)c(=O)[nH]c4=O)C[C@@H]3OP(=O)(O)OC[C@H]3O[C@@H](n4cnc5c(=O)nc(N)[nH]c54)C[C@@H]3OCOC[C@H]3O[C@@H](n4cnc5c(=O)[nH]c(=N)[nH]c54)C[C@@H]3OP(=O)(O)OC[C@H]3O[C@@H](n4cc(C)c(=O)[nH]c4=O)C[C@@H]3OP(=O)(O)OC[C@H]3O[C@@H](n4cc(C)c(=O)[nH]c4=O)C[C@@H]3OP(=O)(O)OC[C@H]3O[C@@H](n4cnc5c(=O)[nH]c(=N)[nH]c54)C[C@@H]3OP(=O)(O)OC[C@H]3O[C@@H](n4cnc5c(=O)nc(N)[nH]c54)C[C@@H]3O)[C@@H](COP(=O)(O)O[C@H]3C[C@H](n4cc(C)c(=O)[nH]c4=O)O[C@@H]3COP(=O)(O)O[C@H]3C[C@H](n4cnc5c(=O)nc(N)[nH]c54)O[C@@H]3COCO[C@H]3C[C@H](n4cnc5c(=O)nc(N)[nH]c54)O[C@@H]3COP(=O)(O)O)O2)c(=O)[nH]c1=O
